According to patent US9326973B2, “Hepatitis C virus inhibitors” (priority 2012, dated 2016):

These molecules were tested on HCV replicon, genotype-1a variant with glutamine 30 changed to glutamate in the NS5A protein (assay: microbe, parasite or virus in culture). Settings: HCV replicon genotype 1a Q30E (Q→E) variant; test compound titrated with an NS5A-targeting compound (BMS-790052 fixed at 200 nM); ranking of synergist activity.
Format: cell-based, HCV genotype 1a
In short: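 Synergy was assessed by combining several fixed amounts of an NS5A-targeting compound with a titration of the second compound of interest.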

SMILES	Fold-Synergistic 1a (Q30E) [fold]
CC1([C@H](NC(=O)C(=O)N2CCC(C(F)(F)F)CC2)c2nc(-c3ccc(-c4ccc(-c5c[nH]c([C@@H](NC(=O)C(=O)N6CCC(C(F)(F)F)CC6)C6(C)CC6)n5)cc4)cc3)c[nH]2)CC1 [Compound W-59]	>100
CC(C)[C@H](NC(=O)C(=O)N1C[C@@H](C)O[C@@H](C)C1)c1nc(-c2ccc(-c3ccc(-c4c[nH]c([C@@H](NC(=O)C(=O)N5C[C@@H](C)O[C@@H](C)C5)C(C)C)n4)cc3)cc2)c[nH]1 [Compound W-54]	>100
CC(C)(C(=O)N[C@H](c1nc(-c2ccc(-c3ccc(-c4c[nH]c([C@@H](NC(=O)C(C)(C)C(=O)N5CC[C@@H](O)C5)C(C)(C)C)n4)cc3)cc2)c[nH]1)C(C)(C)C)C(=O)N1CC[C@@H](O)C1 [Compound W-151]	>10
CC(C)(C)[C@H](NC(=O)C(=O)N1CC[C@H](F)C1)c1nc(-c2ccc(-c3ccc(-c4c[nH]c([C@@H](NC(=O)C(=O)N5CC[C@H](F)C5)C(C)(C)C)n4)cc3)cc2)c[nH]1 [Compound W-27]	>100
CC(C)(C)[C@H](NC(=O)C1(O)CCCC1)c1nc(-c2ccc(-c3ccc(-c4c[nH]c([C@@H](NC(=O)C5(O)CCCC5)C(C)(C)C)n4)cc3)cc2)c[nH]1 [Compound L-73]	>100
O=C(c1ccccn1)N1CCC[C@H]1c1ncc(-c2ccc(-c3ccc(-c4cnc([C@@H]5CCCN5C(=O)c5ccccn5)[nH]4)cc3)cc2)[nH]1 [Compound S-184]	<10
CC(C)CC(=O)NC1(c2nc(-c3ccc(-c4ccc(-c5c[nH]c(C6(NC(=O)CC(C)C)CCCCC6)n5)cc4)cc3)c[nH]2)CCCCC1 [Compound N-24]	<10
COC(=O)N[C@@H](C(=O)NC1(c2nc(-c3ccc(-c4ccc(-c5c[nH]c(C6(NC(=O)[C@H](NC(=O)OC)C(C)C)Cc7ccccc7C6)n5)cc4)cc3)c[nH]2)Cc2ccccc2C1)C(C)C [Compound N-17]	<10
CC1(C(=O)N[C@H](c2nc(-c3ccc(-c4ccc(-c5c[nH]c([C@@H](NC(=O)C6(C)CCOCC6)C(C)(C)C)n5)cc4)cc3)c[nH]2)C(C)(C)C)CCOCC1 [Compound W-130]	>100
CC(C)(C)[C@H](NC(=O)[C@@H](O)C1CCCCC1)c1nc(-c2ccc(-c3ccc(-c4c[nH]c([C@@H](NC(=O)[C@@H](O)C5CCCCC5)C(C)(C)C)n4)cc3)cc2)c[nH]1 [Compound L-77]	>100
O=C(c1ccccc1Oc1ccccc1)N1CCC[C@H]1c1ncc(-c2ccc(-c3ccc(-c4cnc([C@@H]5CCCN5C(=O)c5ccccc5Oc5ccccc5)[nH]4)cc3)cc2)[nH]1 [Compound S-114]	<10
CC(C)[C@H](NC(=O)C1CC(=O)C1)c1nc(-c2ccc(-c3ccc(-c4c[nH]c([C@@H](NC(=O)C5CC(=O)C5)C(C)C)n4)cc3)cc2)c[nH]1 [Compound W-172]	>10
COC(=O)C1([C@H](CC(C)C)C(=O)N[C@H](c2nc(-c3ccc(-c4ccc(-c5c[nH]c([C@@H](NC(=O)[C@@H](CC(C)C)C6(C(=O)OC)CC=CC6)C(C)(C)C)n5)cc4)cc3)c[nH]2)C(C)(C)C)CC=CC1 [Compound S-294]	>100
CN(C)C(=N[C@H](c1ncc(-c2ccc(-c3ccc(-c4cnc([C@@H](NC(=O)C5(C6(O)CCOCC6)CCC5)C(C)(C)C)[nH]4)cc3)cc2)[nH]1)C(C)(C)C)N(C)C [Compound B85]	>10
CC(C)(C)[C@H](NC(=O)C(F)(F)C1(O)CCCC1)c1nc(-c2ccc(-c3ccc(-c4c[nH]c([C@@H](NC(=O)C(F)(F)C5(O)CCCC5)C(C)(C)C)n4)cc3)cc2)c[nH]1 [Compound P-164]	>100
CN(C)C(=O)OC1(C(=O)N[C@H](c2nc(-c3ccc(-c4ccc(-c5c[nH]c([C@@H](NC(=O)C6(OC(=O)N(C)C)CC6)C(C)(C)C)n5)cc4)cc3)c[nH]2)C(C)(C)C)CC1 [Compound L-29]	>100
O=C(c1ccc(-c2ccccc2)o1)N1CCC[C@H]1c1ncc(-c2ccc(-c3ccc(-c4cnc([C@@H]5CCCN5C(=O)c5ccc(-c6ccccc6)o5)[nH]4)cc3)cc2)[nH]1 [Compound S-137]	>10
O=C(c1ccc2c(c1)OCO2)N1CCC[C@H]1c1ncc(-c2ccc(-c3ccc(-c4cnc([C@@H]5CCCN5C(=O)c5ccc6c(c5)OCO6)[nH]4)cc3)cc2)[nH]1 [Compound S-121]	<10
CC(C)(C)[C@H](NC(=O)[C@@H]1CCCN1CC(F)(F)F)c1nc(-c2ccc(-c3ccc(-c4c[nH]c([C@@H](NC(=O)[C@@H]5CCCN5CC(F)(F)F)C(C)(C)C)n4)cc3)cc2)c[nH]1 [Compound L-52]	>100
CC(C)(C)[C@H](NC(=O)C(C)(C)n1cnnn1)c1nc(-c2ccc(-c3ccc(-c4c[nH]c([C@@H](NC(=O)C(C)(C)n5cnnn5)C(C)(C)C)n4)cc3)cc2)c[nH]1 [Compound S-277]	>100

SMILES	Fold-Synergistic 1a (Q30E) [fold]
CC(C)CC(=O)NC1(c2nc(-c3ccc(-c4ccc(-c5c[nH]c(C6(NC(=O)CC(C)C)CC=CC6)n5)cc4)cc3)c[nH]2)CC=CC1 [Compound N-16]	<10
CC[C@H](NC(=O)[C@@H](NC(=O)OC)C(C)C)c1nc(-c2ccc(-c3ccc(-c4c[nH]c([C@H](CC)NC(=O)[C@@H](NC(=O)OC)C(C)C)n4)cc3)cc2)c[nH]1 [Compound N-41]	>10
CC(C)CC(=O)N[C@@H](CC(C)(C)C)c1nc(-c2ccc(-c3ccc(-c4c[nH]c([C@H](CC(C)(C)C)NC(=O)CC(C)C)n4)cc3)cc2)c[nH]1 [Compound P-4]	>10
O=C(Cc1ccc(-c2ccccc2)cc1)N1CCC[C@H]1c1ncc(-c2ccc(-c3ccc(-c4cnc([C@@H]5CCCN5C(=O)Cc5ccc(-c6ccccc6)cc5)[nH]4)cc3)cc2)[nH]1 [Compound S-147]	<10
CC(C)(C)[C@H](NC(=O)[C@@]1(C)CCCCO1)c1nc(-c2ccc(-c3ccc(-c4c[nH]c([C@@H](NC(=O)[C@@]5(C)CCCCO5)C(C)(C)C)n4)cc3)cc2)c[nH]1 [Compound P-176]	>100
CC(C)(C)OC(=O)N1CCOC[C@H]1C(=O)N[C@H](c1nc(-c2ccc(-c3ccc(-c4c[nH]c([C@@H](NC(=O)[C@@H]5COCCN5C(=O)OC(C)(C)C)C(C)(C)C)n4)cc3)cc2)c[nH]1)C(C)(C)C [Compound L-61]	>100
CC1(C)CCCC(C)(C(=O)N[C@H](c2nc(-c3ccc(-c4ccc(-c5c[nH]c([C@@H](NC(=O)C6(C)CCCC(C)(C)O6)C(C)(C)C)n5)cc4)cc3)c[nH]2)C(C)(C)C)O1 (stereo partly shown) [Compound W-168]	>10
CC(C)CC(=O)N[C@H](c1nc(-c2ccc3cc(-c4ccc(-c5cnc([C@@H](NC(=O)CC(C)C)C(C)C)[nH]5)cc4)ccc3c2)c[nH]1)C(C)C [Compound P-2]	>10
CC1(C(=O)N[C@H](c2nc(-c3ccc(-c4ccc(-c5c[nH]c([C@@H](NC(=O)C6(C)CCCO6)C(C)(C)C)n5)cc4)cc3)c[nH]2)C(C)(C)C)CCCO1 (stereo partly drawn) [Compound L-69]	>100
C[C@H]1CC[C@@H](C(=O)N[C@H](c2nc(-c3ccc(-c4ccc(-c5c[nH]c([C@@H](NC(=O)[C@@H]6CC[C@H](C)N6C(=O)OC(C)(C)C)C6(C)CC6)n5)cc4)cc3)c[nH]2)C2(C)CC2)N1C(=O)OC(C)(C)C [Compound W-72]	>100
CC(C)CC(=O)N[C@@H](CC(C)C)c1nc(-c2ccc(-c3ccc(-c4c[nH]c([C@H](CC(C)C)NC(=O)CC(C)C)n4)cc3)cc2)c[nH]1 [Compound N-31]	>10
CCCCC(=O)N1CCC[C@H]1c1ncc(-c2ccc(-c3ccc(-c4cnc([C@@H]5CCCN5C(=O)CCCC)[nH]4)cc3)cc2)[nH]1 [Compound S-180]	<10
CC(C)CC(=O)N[C@H](c1ncc(-c2ccc(C#Cc3ccc(-c4cnc([C@@H](NC(=O)CC(C)C)C(C)C)[nH]4)cc3)cc2)[nH]1)C(C)C [Compound N-6]	>10
CC(C)(C)[C@H](NC(=O)C(F)(F)C1(O)CCCCC1)c1nc(-c2ccc(-c3ccc(-c4c[nH]c([C@@H](NC(=O)C(F)(F)C5(O)CCCCC5)C(C)(C)C)n4)cc3)cc2)c[nH]1 [Compound P-159]	>100
COC(=O)N[C@@H](C(=O)N[C@H](c1nc(-c2ccc3cc(-c4ccc(-c5cnc([C@@H](NC(=O)[C@H](NC(=O)OC)C(C)C)C(C)(C)C)[nH]5)cc4)ccc3c2)c[nH]1)C(C)(C)C)C(C)C [Compound N-8]	>10
CC(C)(C)[C@H](NC(=O)C(F)(F)C(O)c1ccccc1)c1nc(-c2ccc(-c3ccc(-c4c[nH]c([C@@H](NC(=O)C(F)(F)C(O)c5ccccc5)C(C)(C)C)n4)cc3)cc2)c[nH]1 (stereo partly shown) [Compound P-168]	>100
CC(C)(C)[C@H](NC(=O)C(C)(C)C1(O)CCOCC1)c1nc(-c2ccc(-c3ccc(-c4c[nH]c([C@@H](NC(=O)C(C)(C)C5(O)CCOCC5)C(C)(C)C)n4)cc3)cc2)c[nH]1 [Compound P-158]	>100
CC(C)(C)[C@H](NC(=O)[C@@]1(C)CC(F)(F)CO1)c1nc(-c2ccc(-c3ccc(-c4c[nH]c([C@@H](NC(=O)[C@@]5(C)CC(F)(F)CO5)C(C)(C)C)n4)cc3)cc2)c[nH]1 [Compound Y-77]	>100
CCN(CCOC)C(=O)C(C)(C)C(=O)N[C@H](c1nc(-c2ccc(-c3ccc(-c4c[nH]c([C@@H](NC(=O)C(C)(C)C(=O)N(CC)CCOC)C(C)(C)C)n4)cc3)cc2)c[nH]1)C(C)(C)C [Compound W-157]	>10
CC(C)(C)OC(=O)N1CC(C)(C(=O)N[C@H](c2nc(-c3ccc(-c4ccc(-c5c[nH]c([C@@H](NC(=O)C6(C)CN(C(=O)OC(C)(C)C)C6)C(C)(C)C)n5)cc4)cc3)c[nH]2)C(C)(C)C)C1 [Compound L-63]	>100
